# Tests used:
# Format in all cases: in vivo, mouse
# ICAM-1 = ICAM-1 level, protein chip assay; conditions: aged 3xTg-AD female mice; cortex and hippocampus; 30 mg/kg, 7 days, IP
# Procedure: FIGS. 19A-19F are six graphs showing PRMT4 inhibitor (TP-064) reduced ICAM-1, VCAM-1 and enhanced E-Cadherin protein levels in aged female 3xTg-AD mice. In FIGS. 19A-19D, aged 3xTg-AD female mice v. […] Adhesion molecules were assessed via protein chip assay in the cortex and hippocampus. * p<0.05 evaluated by one-way ANOVA with Tukey's post-hoc analyses.
# NO3+NO2 = test: Nitrate/Nitrite colorimetric assay (Griess reaction) of whole brain; conditions: 3xTg-AD mice; 30 mg/kg, IP, 7 days
# Procedure: Nitrate/Nitrite colorimetric assay: Following euthanasia, whole brains were dissected from mice. Cold (4 °C) phosphate-buffered saline (PBS) and glass tissue grinders were used to homogenize the whole brain. Homogenates were centrifuged at 10,000×g for 20 min at 4° C. The supernatant was collected and filtered using 10 kDa ultrafilter (Cat. No. […]010, Millipore, Burlington, VA). Nitrate and nitrite were quantified per manufacturer's instructions (Cat. No. 780001, Cayman Chemical, Ann Arbor, MI). In summary, 80 μL of supernatant was loaded into a 96-well plate with 10 μL enzyme cofactor, and 10 μL nitrate reductase. Following 3 hrs of incubation, 100 μL Griess reagent was added, and plate was incubated for 30 min. The standard curve was provided by the manufacturer, and all sample concentrations were determined from the standard curve values. Changes in absorbance were measured at 550 nm. Final nitrate/nitrite levels were expressed in μM concentration.
# aged 3xTg-AD female mice = test: Neurovascular coupling: microvessel diameter after whisker stimulation, two-photon laser scanning microscopy; conditions: TP-064 30 mg/kg for 7 days, IP or PRMT4-AAV knockdown
# Procedure: FIGS. 11A-11D show neurovascular coupling dysfunction was alleviated with specific PRMT4 inhibitor (TP-064) or PRMT4-AAV knockdown in aged 3xTg-AD female mice. In FIG. 11A, neurovascular coupling was evaluated based on vascular tonicity changes in response to whisker stimulation (30 sec, 4 Hz) via two-photon laser scanning microscopy. FITC-dextran was injected IV for visualization of cerebral microvessels (Z=100 μm depth) in the cortex. In FIG. 11B, vessel diameters were measured before/after whisker stimulation, and before/after TP-064 (30 mg/kg for 7 days, IP) or PRMT4-AAV knockdown.
# Determining if inhibition of PRMT4 can promote neurovascular coupling. […] One reason for this is the loss of neurovascular coupling is associated with the early progression of AD. Whisker-barrel stimulation is a well-established model for examining neurovascular coupling [Rodgers (our in-house collaborator) et al., 2006, 2008, 2009]. The inventors measured cortical microvessel vascular reactivity with two-photon laser scanning microscopy while evoking 30 sec of whisker stimulation in mice. Based on the inventors' findings that aged 3xTg-AD female mice had enhanced PRMT4 expression (FIGS. 2A-3C and 5A-5D), the inventors' results evidence that aged 3xTg-AD female mice presented decreased cortical microvessel diameter as compared to aged 3xTg-AD male mice 30 see (4 Hz) after whisker stimulation. […]
smiles,measurement,setting,value
"CNCCN1CCC(c2cc(CN(C)C(=O)c3cccc(Oc4ccccc4)c3)ccn2)CC1 [TP-064, N-Methyl-N-((2-(1-(2-(methylamino)ethyl)piperidin-4-yl)pyridin-4-yl)methyl)-3-phenoxybenzamide]",ICAM-1 level,ICAM-1,decreased
same,total NO3+NO2 in whole-brain lysate,NO3+NO2,3.90 ± 0.667 µM
same,microvessel diameter after whisker stimulation,aged 3xTg-AD female mice,increased
